pEC50, pIC50: −log10 of the molar value. Values joined by “and” are separate entries in the source; they are usually repeats but may differ in a detail not shown here. Equal entries are not always repeated. Where two headings read alike, the source gives them in different places.
What was measured:
human α7 nAChR [1] = target: T1, human α7 nAChR (Homo sapiens, UniProt P36544); format: binding
IMR32 = experiment: 86Rb ion-flux assay, IMR32 positive control cells; format: cell-based, human
human α7 nAChR [2] = target: T1, human α7 nAChR; format: cell-based
[3] = target: T2, human neuronal nicotinic AChR α3 and β4 subunits (Homo sapiens, UniProt P30926+P32297); format: cell-based
T2 construct: expressed in transfected cells; host or cells: Xenopus oocytes injected with in vitro transcripts

[4] = target: T3, human neuronal nicotinic AChR β4 subunit (Homo sapiens, UniProt P30926); experiment: Two-electrode voltage clamp of Xenopus oocytes injected with β4 transcript alone; format: cell-based
T3 construct: expressed in transfected cells; host or cells: Xenopus oocytes injected with in vitro transcript (KEβ4.6/pGEM or pCMV-KEβ4)
T3 sequence (P30926 22-498): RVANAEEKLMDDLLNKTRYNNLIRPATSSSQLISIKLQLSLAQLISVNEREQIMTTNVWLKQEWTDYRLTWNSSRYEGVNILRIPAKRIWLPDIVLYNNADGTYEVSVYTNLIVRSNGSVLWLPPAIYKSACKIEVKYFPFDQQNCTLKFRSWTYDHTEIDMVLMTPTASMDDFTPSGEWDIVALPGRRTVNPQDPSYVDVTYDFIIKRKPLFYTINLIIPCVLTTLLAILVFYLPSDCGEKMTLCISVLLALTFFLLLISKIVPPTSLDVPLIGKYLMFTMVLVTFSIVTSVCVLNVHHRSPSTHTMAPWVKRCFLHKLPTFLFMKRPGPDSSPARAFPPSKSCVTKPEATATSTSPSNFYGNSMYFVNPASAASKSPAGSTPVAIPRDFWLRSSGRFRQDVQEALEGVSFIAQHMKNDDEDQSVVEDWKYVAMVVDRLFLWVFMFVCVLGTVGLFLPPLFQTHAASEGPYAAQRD

human α3β2α5 nAChR = human α3β2α5 nAChR (Homo sapiens, UniProt P17787+P30532+P32297, D398N); format: cell-based
human α3β2α5 nAChR, sequence (P32297 32-505): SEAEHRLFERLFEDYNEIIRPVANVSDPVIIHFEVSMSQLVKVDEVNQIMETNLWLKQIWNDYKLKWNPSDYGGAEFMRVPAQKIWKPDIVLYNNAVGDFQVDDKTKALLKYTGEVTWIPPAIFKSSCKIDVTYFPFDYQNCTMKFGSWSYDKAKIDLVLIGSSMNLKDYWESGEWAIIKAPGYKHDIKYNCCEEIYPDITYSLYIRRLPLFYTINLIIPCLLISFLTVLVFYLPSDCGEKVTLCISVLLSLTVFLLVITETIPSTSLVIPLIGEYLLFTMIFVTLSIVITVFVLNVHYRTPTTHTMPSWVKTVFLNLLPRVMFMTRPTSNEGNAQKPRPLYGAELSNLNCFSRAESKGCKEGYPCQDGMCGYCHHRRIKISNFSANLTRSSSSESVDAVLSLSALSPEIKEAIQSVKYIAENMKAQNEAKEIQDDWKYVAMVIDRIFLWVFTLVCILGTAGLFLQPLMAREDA
human α3β2α5 nAChR, sequence (P17787 26-502): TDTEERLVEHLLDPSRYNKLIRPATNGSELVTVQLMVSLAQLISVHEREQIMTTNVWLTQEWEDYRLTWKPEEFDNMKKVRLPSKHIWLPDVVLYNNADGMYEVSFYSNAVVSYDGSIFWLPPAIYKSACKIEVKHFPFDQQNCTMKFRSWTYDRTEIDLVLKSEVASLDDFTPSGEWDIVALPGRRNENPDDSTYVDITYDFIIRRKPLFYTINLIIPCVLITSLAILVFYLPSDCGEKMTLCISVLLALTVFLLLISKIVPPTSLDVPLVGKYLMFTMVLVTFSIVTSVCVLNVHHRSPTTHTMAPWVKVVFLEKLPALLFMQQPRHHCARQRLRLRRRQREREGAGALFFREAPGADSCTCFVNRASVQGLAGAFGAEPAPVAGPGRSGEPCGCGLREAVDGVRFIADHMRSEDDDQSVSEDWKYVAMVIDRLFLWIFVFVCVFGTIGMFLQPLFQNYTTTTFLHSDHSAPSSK

PC12 = experiment: 86Rb ion-flux assay, PC12 positive control cells; format: cell-based
[5] = target: T2, human neuronal nicotinic AChR α3 and β4 subunits; experiment: Two-electrode voltage clamp of Xenopus oocytes injected with α3 and β4 transcripts; format: cell-based
[6] = target: human neuronal nicotinic AChR α3 and β2 subunits (Homo sapiens, UniProt P17787+P32297); format: cell-based
human neuronal nicotinic AChR α3 and β2 subunits, sequence (P17787 26-502, one chain of several): as the sequence (P17787 26-502) above

[7] = target: T4, human neuronal nicotinic AChR α3 subunit (Homo sapiens, UniProt P32297); experiment: Two-electrode voltage clamp of Xenopus oocytes injected with α3 transcript alone; format: cell-based
T4 construct: expressed in transfected cells; host or cells: Xenopus oocytes injected with in vitro transcript

[8] = target: human neuronal nicotinic AChR α7 subunit (Homo sapiens, UniProt P36544); format: cell-based
human neuronal nicotinic AChR α7 subunit, sequence (P36544 23-502): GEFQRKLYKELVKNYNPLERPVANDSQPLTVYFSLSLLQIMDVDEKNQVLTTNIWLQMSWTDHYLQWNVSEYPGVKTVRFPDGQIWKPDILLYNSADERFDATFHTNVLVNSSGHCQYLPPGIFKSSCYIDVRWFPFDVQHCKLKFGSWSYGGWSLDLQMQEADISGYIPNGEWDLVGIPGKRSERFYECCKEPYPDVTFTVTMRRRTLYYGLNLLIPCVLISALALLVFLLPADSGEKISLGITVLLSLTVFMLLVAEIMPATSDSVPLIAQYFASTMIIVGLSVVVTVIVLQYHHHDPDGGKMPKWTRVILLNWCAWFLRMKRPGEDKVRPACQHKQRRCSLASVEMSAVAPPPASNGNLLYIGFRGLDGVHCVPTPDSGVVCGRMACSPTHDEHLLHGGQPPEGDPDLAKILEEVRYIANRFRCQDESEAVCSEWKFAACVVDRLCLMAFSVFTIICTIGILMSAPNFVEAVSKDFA

[9] = Rattus norvegicus, PC-12, PC12, agonists and antagonists, read-out: EC50
[10] = Homo sapiens, IMR-32, IMR32, agonists and antagonists, read-out: EC50

T1 sequence (P36544 23-502): as above

Compound: α-bungarotoxin
- [3H]-MLA binding displaced (human α7 nAChR [1]): approximately 65%
- pIC50 (human α7 nAChR [1]; read-out: IC50, displacement of [3H]-MLA binding): 8.52

Compound: CN1[C@@H]2CC[C@H]1C[C@@H](OC(=O)C(CO)c1ccccc1)C2 (stereo partly shown) [atropine]
- pEC50 (IMR32; Homo sapiens, IMR-32): 4.37

Compound: Clc1ccc(C2CC3CCC2N3)cn1 (stereo not shown) [epibatidine]
- response of individual cells (human α7 nAChR [2]): homogenous manner

Compound: CN1CCCC1c1cccnc1 (stereo not shown) [nicotine]
- fluorescence (intracellular calcium) after addition of agonist [3]: increased dramatically
- Number of oocytes responding [4]: 0 of 9
- response of oocytes to application of agonist [4]: did not respond
- fluorescence (intracellular calcium) after addition of agonist (human α3β2α5 nAChR): increased dramatically
- Maximum response (PC12; PC12, at 200 μM nicotine, 300 μM CCh, 1 mM cytisine (footnotes)): 2.1 X^a
- pEC50 (PC12; [9]): 4.28
- pEC50 (IMR32; [10]): 4.74
- Maximum response (IMR32; IMR32, at 200 μM nicotine, 3 mM CCh, 100 μM cytisine (footnotes)): 7.7 X^a
- Number of oocytes responding [5]: 4 of 5 and 3 of 4 and 5 of 5 and 6 of 6
- inward currents in response to agonist [5]: detectable inward currents
- Number of oocytes responding [6]: 2 of 9 and 0 of 9
- Number of oocytes responding [7]: 0 of 8
- response of oocytes to application of agonist [7]: did not respond

Compound: O=c1cccc2n1C[C@@H]1CNC[C@H]2C1 [cytisine]
- response of oocytes to application of agonist [4]: did not respond
- Maximum response (PC12): 3.6 X^d
- pEC50 (PC12; Rattus norvegicus, PC-12): 4.24
- Maximum response (IMR32): 10 X^e
- pEC50 (IMR32; Homo sapiens, IMR-32): 4.85
- Number of oocytes responding [5]: 3 of 4 and 5 of 5 and 6 of 6
- inward currents in response to agonist [5]: detectable inward currents
- relative potency of the agonists [5]: cytisine>ACh>nicotine
- response of oocytes to application of agonist [7]: did not respond

Compound: COc1cc2c3cc1Oc1cc(ccc1O)C[C@@H]1c4c(cc(OC)c(O)c4Oc4ccc(cc4)C[C@@H]3N(C)CC2)CC[N+]1(C)C [d-tubocurarine]
- nicotine-stimulated increase in fluorescence in presence of antagonist [3]: not observed
- block of the response to ACh [8]: blocked
- nicotine-stimulated increase in fluorescence in presence of antagonist (human α3β2α5 nAChR): not observed
- pEC50 (PC12; read-out: EC50): 6.09
- pEC50 (IMR32; read-out: EC50): 5.60
- block of the responses to ACh and nicotine [5]: reproducibly blocked
- blockage of the response to ACh [5]: complete blockage
- reversibility of the inhibition [5]: appeared to be reversible
- block of the current response to ACh [6]: blocked

Compound: C[N+](C)(C)CCCCCC[N+](C)(C)C [hexamethonium]
- pEC50 (IMR32; Homo sapiens, IMR-32): 4.66

Compound: C[N+](C)(C)CCOC(N)=O.[Cl-] [CCh, carbamylcholine]
- Maximum response (PC12): 3.3 X^b
- pEC50 (PC12; read-out: EC50): 4.46
- Maximum response (IMR32): 7.6 X^c
- pEC50 (IMR32; read-out: EC50): 3.64

Compound: CNC1(C)C2CCC(C2)C1(C)C (stereo not shown) [mecamylamine]
- pEC50 (PC12; [9]): 6.38
- pEC50 (IMR32; [10]): 6.96
- block of the responses to ACh, nicotine and cytisine [5]: at least partially blocked
